The results in this text go back to EP4692114A1, “CALCITONIN ANALOGUE, AND DERIVATIVE THEREOF AND USE THEREOF” (Hangzhou Sciwind Biosciences Co., Ltd., priority 2023, dated 2024).

*1 amine or outer side, *2 acyl side, *3 side chain or, on linkers, in order; H or OH if unused. Where a SMILES comes first, the peptide text is derived from it. Where no end group is shown, it is not given here. [ ]: non-standard residue; d: D form. The star is where a group is joined. C22 diacid = O=C(O)CCCCCCCCCCCCCCCCCCCCC(=O)*; C20 diacid = O=C(O)CCCCCCCCCCCCCCCCCCC(=O)*; γGlu = O=C(O)[C@H](CCC(=O)[*:2])N[*:1]; AEEA = NCCOCCOCC(=O)O; Inp = O=C(O)C1CCNCC1

Sequences and labels used below:
T1: human amylin receptors (Homo sapiens, UniProt O60896+P30988)
T1 sequence (P30988 25-474): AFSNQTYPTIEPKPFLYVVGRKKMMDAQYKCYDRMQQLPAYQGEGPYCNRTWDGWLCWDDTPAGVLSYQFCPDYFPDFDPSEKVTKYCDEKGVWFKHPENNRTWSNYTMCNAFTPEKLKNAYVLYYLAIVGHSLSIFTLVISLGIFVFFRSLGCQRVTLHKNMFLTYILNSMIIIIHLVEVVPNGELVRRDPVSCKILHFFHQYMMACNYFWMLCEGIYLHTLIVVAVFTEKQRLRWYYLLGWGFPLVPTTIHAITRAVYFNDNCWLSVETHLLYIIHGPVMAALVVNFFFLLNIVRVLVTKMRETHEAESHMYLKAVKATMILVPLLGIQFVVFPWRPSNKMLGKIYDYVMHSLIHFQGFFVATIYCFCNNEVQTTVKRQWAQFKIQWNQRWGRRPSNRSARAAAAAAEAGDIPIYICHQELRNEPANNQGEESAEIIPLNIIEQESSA
T1 sequence (O60896 24-148 partner): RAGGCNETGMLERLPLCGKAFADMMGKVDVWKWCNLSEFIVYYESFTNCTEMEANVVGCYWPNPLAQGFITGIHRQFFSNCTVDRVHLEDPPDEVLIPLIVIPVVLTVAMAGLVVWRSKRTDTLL

T2: human amylin receptor (AMY3) on CHO-K1/Gal5/AMY3 cells (human, UniProt P30988 25-474; O60896 24-148)
T2 sequence (looked up) 1: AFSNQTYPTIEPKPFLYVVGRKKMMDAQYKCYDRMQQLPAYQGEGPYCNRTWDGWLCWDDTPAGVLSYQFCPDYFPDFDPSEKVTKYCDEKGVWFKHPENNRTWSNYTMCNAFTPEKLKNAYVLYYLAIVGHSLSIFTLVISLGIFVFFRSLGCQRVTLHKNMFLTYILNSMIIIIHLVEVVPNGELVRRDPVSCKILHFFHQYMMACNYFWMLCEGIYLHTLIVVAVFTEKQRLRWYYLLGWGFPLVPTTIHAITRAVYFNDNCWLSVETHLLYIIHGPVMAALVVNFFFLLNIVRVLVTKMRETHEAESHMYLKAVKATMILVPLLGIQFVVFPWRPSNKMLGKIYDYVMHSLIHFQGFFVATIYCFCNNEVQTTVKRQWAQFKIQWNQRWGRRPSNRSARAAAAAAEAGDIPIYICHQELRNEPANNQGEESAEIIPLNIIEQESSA
T2 sequence (looked up) 2: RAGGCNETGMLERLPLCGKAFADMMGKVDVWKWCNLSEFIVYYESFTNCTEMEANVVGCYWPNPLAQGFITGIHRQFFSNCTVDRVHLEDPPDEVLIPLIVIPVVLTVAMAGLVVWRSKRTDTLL

B1: calcitonin derivative M54 (peptide)
peptide: {C20 diacid}-DASQLSTAVLGRLSEELHRLQDYPRTDVGSGSP-NH2
SMILES: CC(C)C[C@H](NC(=O)[C@H](CCCNC(=N)N)NC(=O)CNC(=O)[C@H](CC(C)C)NC(=O)[C@@H](NC(=O)[C@H](C)NC(=O)[C@@H](NC(=O)[C@H](CO)NC(=O)[C@H](CC(C)C)NC(=O)[C@H](CCC(N)=O)NC(=O)[C@H](CO)NC(=O)[C@H](C)NC(=O)[C@H](CC(=O)O)NC(=O)CCCCCCCCCCCCCCCCCCC(=O)O)[C@@H](C)O)C(C)C)C(=O)N[C@@H](CO)C(=O)N[C@@H](CCC(=O)O)C(=O)N[C@@H](CCC(=O)O)C(=O)N[C@@H](CC(C)C)C(=O)N[C@@H](Cc1c[nH]cn1)C(=O)N[C@@H](CCCNC(=N)N)C(=O)N[C@@H](CC(C)C)C(=O)N[C@@H](CCC(N)=O)C(=O)N[C@@H](CC(=O)O)C(=O)N[C@@H](Cc1ccc(O)cc1)C(=O)N1CCC[C@H]1C(=O)N[C@@H](CCCNC(=N)N)C(=O)N[C@H](C(=O)N[C@@H](CC(=O)O)C(=O)N[C@H](C(=O)NCC(=O)N[C@@H](CO)C(=O)NCC(=O)N[C@@H](CO)C(=O)N1CCC[C@H]1C(N)=O)C(C)C)[C@@H](C)O
B2: calcitonin derivative M37 (peptide)
peptide: {C20 diacid-γGlu}-KSQLSTDVLGRLSQELHRLQDYPRTDVGSGSP-NH2
SMILES: CC(C)C[C@H](NC(=O)[C@H](CCCNC(=N)N)NC(=O)CNC(=O)[C@H](CC(C)C)NC(=O)[C@@H](NC(=O)[C@H](CC(=O)O)NC(=O)[C@@H](NC(=O)[C@H](CO)NC(=O)[C@H](CC(C)C)NC(=O)[C@H](CCC(N)=O)NC(=O)[C@H](CO)NC(=O)[C@H](CCCCN)NC(=O)CC[C@H](NC(=O)CCCCCCCCCCCCCCCCCCC(=O)O)C(=O)O)[C@@H](C)O)C(C)C)C(=O)N[C@@H](CO)C(=O)N[C@@H](CCC(N)=O)C(=O)N[C@@H](CCC(=O)O)C(=O)N[C@@H](CC(C)C)C(=O)N[C@@H](Cc1c[nH]cn1)C(=O)N[C@@H](CCCNC(=N)N)C(=O)N[C@@H](CC(C)C)C(=O)N[C@@H](CCC(N)=O)C(=O)N[C@@H](CC(=O)O)C(=O)N[C@@H](Cc1ccc(O)cc1)C(=O)N1CCC[C@H]1C(=O)N[C@@H](CCCNC(=N)N)C(=O)N[C@H](C(=O)N[C@@H](CC(=O)O)C(=O)N[C@H](C(=O)NCC(=O)N[C@@H](CO)C(=O)NCC(=O)N[C@@H](CO)C(=O)N1CCC[C@H]1C(N)=O)C(C)C)[C@@H](C)O

In one test the target is T1, human amylin receptors. The experiment in a line: Luciferase assay of amylin (amylin receptor/CRE-luc cell line).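 Further: agonist potency from luminescence of cAMP response element-driven luciferase, EC50 derived from a standard curve of signal versus compound concentration.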 The class given is cell-based. To be noted: stably transfected amylin receptor/CRE-luc CHO cells (CHO-K1/Gal5/AMY3), 24 hours incubation, luciferase readout.
As usually defined, the EC50 is the concentration at which the effect is half-maximal. Low values mean greater potency, high ones weaker potency. Turning to `CC(C)C[C@H](NC(=O)[C@H](CCCNC(=N)N)NC(=O)CNC(=O)[C@H](CC(C)C)NC(=O)[C@@H](NC(=O)[C@H](C)NC(=O)[C@@H](NC(=O)[C@H](CO)NC(=O)[C@H](CC(C)C)NC(=O)[C@H](CCC(N)=O)NC(=O)[C@H](CO)NC(=O)[C@H](C)NC(=O)COCCOCCNC(=O)COCCOCCNC(=O)CC[C@H](NC(=O)CCCCCCCCCCCCCCCCCCCCC(=O)O)C(=O)O)[C@@H](C)O)C(C)C)C(=O)N[C@@H](CO)C(=O)N[C@@H](CCC(=O)O)C(=O)N[C@@H](CCC(=O)O)C(=O)N[C@@H](CC(C)C)C(=O)N[C@@H](Cc1c[nH]cn1)C(=O)N[C@@H](CCCNC(=N)N)C(=O)N[C@@H](CC(C)C)C(=O)N[C@@H](CCC(N)=O)C(=O)N[C@@H](CC(=O)O)C(=O)N[C@@H](Cc1ccc(O)cc1)C(=O)N1CCC[C@H]1C(=O)N[C@@H](CCCNC(=N)N)C(=O)N[C@H](C(=O)N[C@@H](CC(=O)O)C(=O)N[C@H](C(=O)NCC(=O)N[C@@H](CO)C(=O)NCC(=O)N[C@@H](CO)C(=O)N1CCC[C@H]1C(N)=O)C(C)C)[C@@H](C)O` [M66] ({C22 diacid-γGlu-AEEA-AEEA}-ASQLSTAVLGRLSEELHRLQDYPRTDVGSGSP-NH2), the EC50 stood at 0.017 nM. The same measure, in the same setting: next, `CC(C)C[C@H](NC(=O)CC[C@H](NC(=O)CCCCCCCCCCCCCCCCCCC(=O)O)C(=O)O)C(=O)N[C@@H](CO)C(=O)N[C@@H](CCC(N)=O)C(=O)N[C@@H](CC(C)C)C(=O)N[C@@H](CO)C(=O)N[C@H](C(=O)N[C@@H](CC(C)C)C(=O)N[C@H](C(=O)N[C@@H](CC(C)C)C(=O)NCC(=O)N[C@@H](CCCNC(=N)N)C(=O)N[C@@H](CC(C)C)C(=O)N[C@@H](CO)C(=O)N[C@@H](CCC(N)=O)C(=O)N[C@@H](CCC(=O)O)C(=O)N[C@@H](CC(C)C)C(=O)N[C@@H](Cc1c[nH]cn1)C(=O)N[C@@H](CCCNC(=N)N)C(=O)N[C@@H](CC(C)C)C(=O)N[C@@H](CCC(N)=O)C(=O)N[C@@H](CC(=O)O)C(=O)N[C@@H](Cc1ccc(O)cc1)C(=O)N1CCC[C@H]1C(=O)N[C@@H](CCCNC(=N)N)C(=O)N[C@H](C(=O)N[C@@H](CC(=O)O)C(=O)N[C@H](C(=O)NCC(=O)N[C@@H](CO)C(=O)NCC(=O)N[C@@H](CO)C(=O)N1CCC[C@H]1C(N)=O)C(C)C)[C@@H](C)O)C(C)C)[C@@H](C)O` [M25] ({C20 diacid-γGlu}-LSQLSTLVLGRLSQELHRLQDYPRTDVGSGSP-NH2): 0.016 nM. Same read-out and setting: in the case of `CC(C)C[C@H](NC(=O)[C@H](CCCNC(=N)N)NC(=O)CNC(=O)[C@H](CC(C)C)NC(=O)[C@@H](NC(=O)[C@H](C)NC(=O)[C@@H](NC(=O)[C@H](CO)NC(=O)[C@H](CC(C)C)NC(=O)[C@H](CCC(N)=O)NC(=O)[C@H](CO)NC(=O)[C@H](C)NC(=O)COCCOCCNC(=O)COCCOCCNC(=O)[C@H](CCC(=O)O)NC(=O)CCCCCCCCCCCCCCCCCCC(=O)O)[C@@H](C)O)C(C)C)C(=O)N[C@@H](CO)C(=O)N[C@@H](CCC(=O)O)C(=O)N[C@@H](CCC(=O)O)C(=O)N[C@@H](CC(C)C)C(=O)N[C@@H](Cc1c[nH]cn1)C(=O)N[C@@H](CCCNC(=N)N)C(=O)N[C@@H](CC(C)C)C(=O)N[C@@H](CCC(N)=O)C(=O)N[C@@H](CC(=O)O)C(=O)N[C@@H](Cc1ccc(O)cc1)C(=O)N1CCC[C@H]1C(=O)N[C@@H](CCCNC(=N)N)C(=O)N[C@H](C(=O)N[C@@H](CC(=O)O)C(=O)N[C@H](C(=O)NCC(=O)N[C@@H](CO)C(=O)NCC(=O)N[C@@H](CO)C(=O)N1CCC[C@H]1C(N)=O)C(C)C)[C@@H](C)O` [M58] ({C20 diacid}-E[AEEA][AEEA]ASQLSTAVLGRLSEELHRLQDYPRTDVGSGSP-NH2) it was 0.017 nM. Still for that read-out and setting: in the case of `CC(C)C[C@H](NC(=O)[C@H](CCCNC(=N)N)NC(=O)CNC(=O)[C@H](CC(C)C)NC(=O)[C@@H](NC(=O)[C@H](C)NC(=O)[C@@H](NC(=O)[C@H](CO)NC(=O)[C@H](CC(C)C)NC(=O)[C@H](CCC(N)=O)NC(=O)[C@H](CO)NC(=O)[C@H](C)NC(=O)C1CCN(C(=O)CCCCCCCCCCCCCCCCCCC(=O)O)CC1)[C@@H](C)O)C(C)C)C(=O)N[C@@H](CO)C(=O)N[C@@H](CCC(=O)O)C(=O)N[C@@H](CCC(=O)O)C(=O)N[C@@H](CC(C)C)C(=O)N[C@@H](Cc1c[nH]cn1)C(=O)N[C@@H](CCCNC(=N)N)C(=O)N[C@@H](CC(C)C)C(=O)N[C@@H](CCC(N)=O)C(=O)N[C@@H](CC(=O)O)C(=O)N[C@@H](Cc1ccc(O)cc1)C(=O)N1CCC[C@H]1C(=O)N[C@@H](CCCNC(=N)N)C(=O)N[C@H](C(=O)N[C@@H](CC(=O)O)C(=O)N[C@H](C(=O)NCC(=O)N[C@@H](CO)C(=O)NCC(=O)N[C@@H](CO)C(=O)N1CCC[C@H]1C(N)=O)C(C)C)[C@@H](C)O` [M56] ({C20 diacid-Inp}-ASQLSTAVLGRLSEELHRLQDYPRTDVGSGSP-NH2) it was 0.017 nM. Regarding `CC(C)C[C@H](NC(=O)[C@H](CCCNC(=N)N)NC(=O)CNC(=O)[C@H](CC(C)C)NC(=O)[C@@H](NC(=O)[C@H](C)NC(=O)[C@@H](NC(=O)[C@H](CO)NC(=O)[C@H](CC(C)C)NC(=O)[C@H](CCC(N)=O)NC(=O)[C@H](CO)NC(=O)[C@H](C)NC(=O)[C@H](CCC(=O)O)NC(=O)CCCCCCCCCCCCCCCCCCC(=O)O)[C@@H](C)O)C(C)C)C(=O)N[C@@H](CO)C(=O)N[C@@H](CCC(=O)O)C(=O)N[C@@H](CCC(=O)O)C(=O)N[C@@H](CC(C)C)C(=O)N[C@@H](Cc1c[nH]cn1)C(=O)N[C@@H](CCCNC(=N)N)C(=O)N[C@@H](CC(C)C)C(=O)N[C@@H](CCC(N)=O)C(=O)N[C@@H](CC(=O)O)C(=O)N[C@@H](Cc1ccc(O)cc1)C(=O)N1CCC[C@H]1C(=O)N[C@@H](CCCNC(=N)N)C(=O)N[C@H](C(=O)N[C@@H](CC(=O)O)C(=O)N[C@H](C(=O)NCC(=O)N[C@@H](CO)C(=O)NCC(=O)N[C@@H](CO)C(=O)N1CCC[C@H]1C(N)=O)C(C)C)[C@@H](C)O` [M52] ({C20 diacid}-EASQLSTAVLGRLSEELHRLQDYPRTDVGSGSP-NH2), the EC50 turned out to be 0.017 nM.

The next test addresses T2, human amylin receptor (AMY3) on …. The experiment in a line: cell-based or functional assay.
Details: not given
With ASQLSTAVLGRLSQELHRLQDYPRTDVGSGSP-NH2 [calcitonin analogue M5], the “EC50/nM, CRE-luciferase in amylin receptor/CRE-luc CHO cells” value stood at 0.033 nM.

Consider B1, for which the “EC50/nM, CRE-luciferase in amylin receptor/CRE-luc CHO cells” value turned out to be 0.017 nM. Consider B2, for which the “EC50/nM, CRE-luciferase in amylin receptor/CRE-luc CHO cells” value was determined as 0.052 nM.
